Experimental data: patent US20250009841A1, “Methods of Diagnosing and Managing Bleeding Disorders” (Emory University, priority 2023, published 2025)

Test system: healthy donor platelets
Assay: Monoclonal antibody contraction experiments on the platelet contraction cytometer
Type: cell-based, human
Conditions: 2.5 μg/mL monoclonal antibody
Method: Blood was drawn into acid-citrate-dextrose (ACD) solution 2 (VWR) and was subsequently centrifuged at 150 G for 15 min without brake and the resulting platelet rich plasma (PRP) was centrifuged again with an additional 10% ACD by volume at 900 G for 5 min without brake. The supernatant, platelet poor plasma, was discarded or utilized to isolate patient polyclonal IgG antibodies. The platelet pellet was resuspended into HEPES modified buffer and was gel filtered into this same buffer using a gel filtration column. Platelets were then diluted to 2 million/mL prior to contraction cytometry to reduce paracrine signaling and minimize platelet aggregate formation.
Each contraction cytometer contains large arrays of fibrinogen microdots pairs that are patterned onto a polyacrylamide hydrogel with a stiffness of about 75 k Pa. […] These values for microdot size and spacing ensured that platelets preferentially attached to the microdots and were able to spread to neighboring microdot in the microdot pair and contract. […]
Platelet contraction was imaged on a confocal microscope using a 20×/0.8 NA lens. […] Images were analyzed using a script which calculated the center-to-center distance between fibrinogen microdots. […] Traction forces (T) of individual platelets were calculated as: T=2πGa (xs−xf)/2−v. […]

How did the “effect on platelet contractile force” value (15 minutes prior to thrombin activation) turn out when PAC-1 was run?
Its value is “lowers contractile forces”.

B1: abciximab (antibody, chains of the INN, looked up, V domains shown)
VH: EVQLQQSGTVLARPGASVKMSCEASGYTFTNYWMHWVKQRPGQGLEWIGAIYPGNSDTSYIQKFKGKAKLTAVTSTTSVYMELSSLTNEDSAVYYCTLYDGYYVFAYWGQGTLVTVSA
VL: EIVLTQSPVTLSVTPGDSVSLSCRASRDISNNLHWFQQTSHESPRLLIKYASQSMSGIPSRFSGSGSGTDFTLSINSVETEDFGMYFCQQTNSWPYTFGGGTKLEIK
B1 was tested. Which “effect on platelet adhesion” value (fibrinogen microdots) did it give?
The value was “blocks adhesion”.
